{"source": "patent US4077981A", "about": "“Certain 1-alkyl-2-dichlorophenyliminopyrrolidines” (Bayer Aktiengesellschaft, priority 1968, dated 1978)", "key": {"Boophilus, Biarra strain": {"system": "Boophilus, Biarra strain", "assay": "In-vitro test for adulticidal effect on ticks (24 hours)", "design": "species or system Boophilus microplus", "settings": "Table 4, after 24 hours, at the concentrations stated", "protocol": "In addition, the adulticidal effectiveness of the preparation of the given active compound after 24 hours is determined by ascertaining the voluntary movement of limbs and bodies of the immersed adult ticks after stimulation with a fine needle compared with the voluntary movement of limbs and bodies of the untreated adult ticks. The effectiveness is stated in %, 100% meaning that no movements of any kind of the limbs and bodies were any longer detectable, and 0% signifying that the ticks moved limbs and bodies in normal manner."}, "[1]": {"system": "Boophilus microplus, Biarra strain (resistant)", "assay": "In-vitro test for ovicidal effect on ticks (Biarra strain)", "settings": "for Ovicidal effect: 50% inhibition with the stated concentration of active compound: Table 4, concentration giving 50% inhibition; for Ovicidal effect: 50% inhibition with the stated concentration of active compound / Ovicidal effect: 100% inhibition with the stated concentration of active compound: ovicidal only (marked not adulticidal); for Ovicidal effect: 100% inhibition with the stated concentration of active compound: Table 4, concentration giving 100% inhibition", "protocol": "(§1) In-vitro Test for Ovicidal Effect on Ticks\nThe emulsion concentrate so obtained is diluted with water to the application concentration desired in each case.\nAfter immersion of, in each case, 10 female specimens of the various strains of ticks, the individual ticks are transferred to plastic dishes, the bottom of each of which is covered with a disc of filter paper."}, "Toxicity on the mouse": {"assay": "Toxicity on the mouse", "settings": "in vivo, read-out: Toxicity (highest survived dose)", "protocol": "The toxicity determined on the mouse is: orally, 500 mg/kg; subcutaneously,500 mg/kg (highest survived doses)."}, "[2]": {"system": "Boophilus microplus, Biarra strain", "assay": "In-vivo test against ticks on cattle", "design": "species or system Boophilus microplus (on cattle)", "protocol": "In-vivo test against ticks on cattle\n3 parts of the particular active compound are mixed with 7 parts of a mixture of equal parts by weight of ethyleneglycol monomethyl ether and nonylphenyl polyglycol ether. The emulsion concentrate so obtained is diluted with water to the application concentration desired in each case.\nCattle which have been infected (12 times at intervals of 2 days) with resistant larvae of ticks of the species Boophilus microplus, Biarra strain, are sprayed on the 24th day after the first infection with the preparation of the given active compound so obtained.\nThe effect of the preparation of the given active compound is determined by ascertaining the number of adult female ticks which have reached development on the treated cattle and later lay viable eggs. This number is compared with the number of adult femal ticks which have reached development on untreated cattle.\nAs a measure of the intensity of the infestation before treatment, there is used the number of adult females which reach development in the case of the treated and untreated animals in the last three days before the time of treatment."}, "[3]": {"system": "Boophilus microplus, Ridgeland strain (resistant)", "assay": "In-vitro test for ovicidal effect on ticks (Ridgeland strain)", "settings": "Rhipicephalus microplus, 840 h, Ridgeland strain, resistant, after 35 days, read-out: Inhibition of egg depositing", "protocol": "as §1\n(§2) 3 g of the particular active compound are mixed with 7 g of a mixture of equal parts by weight of ethyleneglycol monomethyl ether and nonylphenyl polyglycol ether. The emulsion concentrate so obtained is diluted with water to the application concentration desired in each case.\n(§3) Adult, fully engorged female ticks of the species Boophilus microplus (resistant) are immersed for 1 minute in this preparation of the given active compound. After immersion of, in each case, 10 female specimens of the various strains of ticks, the individual ticks are transferred to plastic dishes, the bottom of each of which is covered with a disc of filter paper. As a control, similar ticks of a normally sensitive strain are treated in exactly the same manner.\n(§4) After 35 days, the effectiveness of the preparation of the given active compound is determined by ascertaining the inhibition of the depositing of fertile eggs compared with the egg depositing of untreated control ticks. The effect is stated in %, 100% meaning that fertile eggs ceased to be deposited, and 0% signifying that the ticks have deposited eggs in normal manner like the untreated control ticks."}, "[4]": {"system": "Boophilus microplus, normally sensitive strain", "assay": "In-vitro test for ovicidal effect on ticks (normally sensitive strain)", "settings": "Rhipicephalus microplus, 840 h, after 35 days, read-out: Inhibition of egg depositing", "protocol": "as §1, §2, §3, §4"}}, "note": "Read-outs that look alike come from different tables or passages of the source."}
{"smiles": "C=CCN1CCCC1=Nc1cc(Cl)c(Cl)cc1Cl", "values": [{"measurement": "Adulticidal effect", "setting": "Boophilus, Biarra strain", "result": "not adulticidal"}, {"measurement": "Ovicidal effect: 50% inhibition with the stated concentration of active compound", "setting": "[1]", "result": 0.02, "unit": "% by weight"}, {"measurement": "Ovicidal effect: 100% inhibition with the stated concentration of active compound", "setting": "[1]", "result": 0.03, "unit": "% by weight"}]}
{"smiles": "CC=CCN1CCCC1=Nc1ccc(Cl)cc1Cl", "values": [{"measurement": "Adulticidal effect", "setting": "Boophilus, Biarra strain", "result": "not adulticidal"}, {"measurement": "Ovicidal effect: 50% inhibition with the stated concentration of active compound", "setting": "[1]", "result": 0.03, "unit": "% by weight"}, {"measurement": "Ovicidal effect: 100% inhibition with the stated concentration of active compound", "setting": "[1]", "result": 0.01, "unit": "% by weight"}]}
{"smiles": "CC=CCN1CCCC1=Nc1ccc(Br)cc1CC", "values": [{"measurement": "Adulticidal effect", "setting": "Boophilus, Biarra strain", "result": "not adulticidal"}, {"measurement": "Ovicidal effect: 50% inhibition with the stated concentration of active compound", "setting": "[1]", "result": 0.05, "unit": "% by weight"}, {"measurement": "Ovicidal effect: 100% inhibition with the stated concentration of active compound", "setting": "[1]", "result": 0.1, "unit": "% by weight"}]}
{"smiles": "C=CCN1CCCC1=Nc1ccc(Cl)cc1C", "values": [{"measurement": "Adulticidal effect", "setting": "Boophilus, Biarra strain", "result": "not adulticidal"}, {"measurement": "Ovicidal effect: 50% inhibition with the stated concentration of active compound", "setting": "[1]", "result": 0.02, "unit": "% by weight"}, {"measurement": "Ovicidal effect: 100% inhibition with the stated concentration of active compound", "setting": "[1]", "result": 0.03, "unit": "% by weight"}]}
{"smiles": "C=CCN1CCCC1=Nc1ccc(Cl)cc1Cl", "note": "[Example 6, 1-(α-allyl)-2-(2',4'-dichloro-phenylimino)-pyrrolidine]", "values": [{"measurement": "MTD", "setting": "Toxicity on the mouse; po, orally", "result": 500, "unit": "mg/kg"}, {"measurement": "MTD", "setting": "Toxicity on the mouse; sc, subcutaneously", "result": 500, "unit": "mg/kg"}]}
{"smiles": "CN1CCCC1=Nc1ccc(Cl)cc1Cl", "note": "[l1, 1-methyl-2-(2',4'-dichloro-phenylimino)-pyrrolidine]", "values": [{"measurement": "Number of female adult ticks which reach development on the cattle", "setting": "[2]; 0.3%, days after treatment +4+5+6", "result": 1}, {"measurement": "Number of female adult ticks which reach development on the cattle", "setting": "[2]; 0.3%, days after treatment +7+8+9", "result": 119}, {"measurement": "Number of female adult ticks which reach development on the cattle", "setting": "[2]; 0.4%, days after treatment +7+8+9", "result": 72}, {"measurement": "Number of female adult ticks which reach development on the cattle", "setting": "[2]; 0.5%, days after treatment +7+8+9", "result": 1}, {"measurement": "Number of female adult ticks which reach development on the cattle", "setting": "[2]; 0.5%, days after treatment +10+11+12", "result": 7}, {"measurement": "Number of female adult ticks which reach development on the cattle", "setting": "[2]; 0.5%, days after treatment +13+14+15", "result": 3}, {"measurement": "Number of female adult ticks which reach development on the cattle", "setting": "[2]; 0.5%, days after treatment +16+17+18", "result": 1}, {"measurement": "Total number of female adult ticks which reach development on the cattle", "setting": "[2]; 0.5%, total 1-21 days", "result": 12}, {"measurement": "inhibition at 0.01 % strength", "setting": "[3]; 0.01% active compound", "result": 0, "unit": "%"}, {"measurement": "inhibition at 0.03 % strength", "setting": "[3]; 0.03% active compound", "result": "> 50", "unit": "%"}, {"measurement": "inhibition at 0.1 % strength", "setting": "[3]; 0.1% active compound", "result": 100, "unit": "%"}, {"measurement": "inhibition at 0.3 % strength", "setting": "[3]; 0.3% active compound", "result": 100, "unit": "%"}, {"measurement": "inhibition at 1 % strength", "setting": "[3]; 1.0% active compound", "result": 100, "unit": "%"}, {"measurement": "inhibition at 0.01 % strength", "setting": "[4]; 0.01% active compound", "result": 0, "unit": "%"}, {"measurement": "inhibition at 0.03 % strength", "setting": "[4]; 0.03% active compound", "result": "> 50", "unit": "%"}, {"measurement": "inhibition at 0.1 % strength", "setting": "[4]; 0.1% active compound", "result": 100, "unit": "%"}, {"measurement": "inhibition at 0.3 % strength", "setting": "[4]; 0.3% active compound", "result": 100, "unit": "%"}, {"measurement": "inhibition at 1 % strength", "setting": "[4]; 1.0% active compound", "result": 100, "unit": "%"}, {"measurement": "inhibition at 0.01 % strength", "setting": "[1]; Rhipicephalus microplus, 840 h, 0.01% active compound, resistant, after 35 days, read-out: Inhibition of egg depositing", "result": 0, "unit": "%"}, {"measurement": "inhibition at 0.03 % strength", "setting": "[1]; Rhipicephalus microplus, 840 h, 0.03% active compound, resistant, after 35 days, read-out: Inhibition of egg depositing", "result": "> 50", "unit": "%"}, {"measurement": "inhibition at 0.1 % strength", "setting": "[1]; Rhipicephalus microplus, 840 h, 0.1% active compound, resistant, after 35 days, read-out: Inhibition of egg depositing", "result": 100, "unit": "%"}, {"measurement": "inhibition at 0.3 % strength", "setting": "[1]; Rhipicephalus microplus, 840 h, 0.3% active compound, resistant, after 35 days, read-out: Inhibition of egg depositing", "result": 100, "unit": "%"}, {"measurement": "inhibition at 1 % strength", "setting": "[1]; Rhipicephalus microplus, 840 h, 1.0% active compound, resistant, after 35 days, read-out: Inhibition of egg depositing", "result": 100, "unit": "%"}]}
